Assays:
[1] = molecular target: T1, CnGnk1 (Gnk1, Gnk1p; formerly IRK3) (Cryptococcus neoformans, UniProt J9VGW6); test: 6PGDH-coupled NADPH absorbance at […] nm; format: biochemical; settings: 1 mM MgCl2, 500 uM NADP+, pH 7.5, 37 C
T1 construct: gene CNAG_03048
T1 sequence (J9VGW6 1-230): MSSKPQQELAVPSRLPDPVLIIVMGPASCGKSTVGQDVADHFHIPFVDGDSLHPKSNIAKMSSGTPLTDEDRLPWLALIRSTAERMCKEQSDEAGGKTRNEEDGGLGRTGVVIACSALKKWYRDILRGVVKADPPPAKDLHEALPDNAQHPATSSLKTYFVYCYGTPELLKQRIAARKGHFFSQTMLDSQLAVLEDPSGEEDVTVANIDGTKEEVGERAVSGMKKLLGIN

[2] = molecular target: T1, CnGnk1 (Gnk1, Gnk1p; formerly IRK3); test: competition against gluconate, 6PGDH-coupled NADPH absorbance at […] nm; format: biochemical; settings: 0.5 mM gluconate, competing sugar 10 mM

SMILES	% reduction in activity at 10 mM [2]	other results
Nc1ncnc2c1ncn2[C@@H]1O[C@H](COP(=O)(O)OP(=O)(O)OP(=O)(O)O)[C@@H](O)[C@H]1O [ATP]	–	KM (apparent) ([1]; 10 mM gluconate): 2.6, 95% CI (1.9, 3.7) mM
OC[C@H]1OC(O)[C@H](O)[C@@H](O)[C@H]1O (some centres unmarked) [galactose]	~ 20%	–
O=C(O)[C@H](O)[C@@H](O)[C@H](O)[C@H](O)CO [gluconate]	–	KM (apparent) ([1]; 10 mM ATP): 3.7, 95% CI (2.7, 5.2) mM
OC[C@H]1OC(O)[C@H](O)[C@@H](O)[C@@H]1O (some centres unmarked) [glucose]	~ 40%	–
OC[C@@H](O)[C@@H](O)[C@H](O)[C@H](O)CO [mannitol]	~ 20%	–

Source: PMC9045243, “Gluconate Kinase Is Required for Gluconate Assimilation and Sporulation in Cryptococcus neoformans” (Microbiology Spectrum, 2022)
